Consider nine molecules from US20220064196A1, “EGFR Inhibitors, Compositions and Methods Thereof” (Betta Pharmaceuticals Co., Ltd., priority 2019, published 2022).

Where two headings read alike, the source gives them in different places. Bounds are passed on as bounds.

In series [1] the target is EGFR L858R/T790M/C797S (Homo sapiens, UniProt P00533, C797S/L858R/T790M). Description: Kinase assay (mobility shift), EGFR L858R/T790M/C797S. Type of series: biochemical. How it is done: [Worded in the source for another variant; this variant is reported under the same test.] (§1) Test 1 Kinase Assay for EGFR Del19/T790M/C797S and EGFR Wildtype
EGFR L858R/T790M/C797S, sequence (P00533 25-1210 T790M/C797S/L858R): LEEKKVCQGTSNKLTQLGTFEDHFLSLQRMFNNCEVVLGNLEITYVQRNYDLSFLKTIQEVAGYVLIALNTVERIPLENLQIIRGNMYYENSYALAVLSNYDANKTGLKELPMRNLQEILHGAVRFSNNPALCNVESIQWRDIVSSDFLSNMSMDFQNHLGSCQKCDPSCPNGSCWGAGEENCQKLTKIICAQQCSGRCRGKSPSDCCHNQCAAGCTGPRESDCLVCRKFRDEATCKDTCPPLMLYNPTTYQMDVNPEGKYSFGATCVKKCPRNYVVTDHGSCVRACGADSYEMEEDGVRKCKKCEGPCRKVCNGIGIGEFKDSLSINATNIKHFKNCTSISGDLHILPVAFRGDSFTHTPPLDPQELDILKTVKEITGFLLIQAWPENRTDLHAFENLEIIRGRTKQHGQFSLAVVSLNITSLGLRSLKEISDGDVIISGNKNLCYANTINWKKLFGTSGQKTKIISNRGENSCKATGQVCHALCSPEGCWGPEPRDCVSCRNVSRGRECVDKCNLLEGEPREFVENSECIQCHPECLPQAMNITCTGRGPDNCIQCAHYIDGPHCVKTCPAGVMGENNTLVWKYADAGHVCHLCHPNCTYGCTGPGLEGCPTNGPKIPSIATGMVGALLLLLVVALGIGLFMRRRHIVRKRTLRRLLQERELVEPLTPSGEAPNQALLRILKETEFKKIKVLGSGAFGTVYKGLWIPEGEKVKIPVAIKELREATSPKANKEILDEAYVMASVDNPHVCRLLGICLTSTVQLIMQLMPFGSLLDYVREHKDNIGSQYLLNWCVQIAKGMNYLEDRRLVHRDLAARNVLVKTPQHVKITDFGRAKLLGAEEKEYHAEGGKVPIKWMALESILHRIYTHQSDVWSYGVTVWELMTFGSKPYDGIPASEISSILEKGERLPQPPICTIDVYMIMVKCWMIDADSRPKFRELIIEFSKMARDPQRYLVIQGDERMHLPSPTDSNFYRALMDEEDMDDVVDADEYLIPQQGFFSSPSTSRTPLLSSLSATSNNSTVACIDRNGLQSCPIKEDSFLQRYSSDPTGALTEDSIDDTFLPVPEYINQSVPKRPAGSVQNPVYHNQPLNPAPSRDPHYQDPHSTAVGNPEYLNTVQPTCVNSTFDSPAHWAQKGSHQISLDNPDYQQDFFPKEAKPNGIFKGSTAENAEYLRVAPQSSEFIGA
(§2) Enzyme reaction protocol are as follows:
(§3) 1. Preparing 1* Kinase buffer as followed.
(§4) 2. Preparing Compound Concentration Gradient: Compounds were tested at a concentration of 300 nM, diluted to 100-fold final concentration in 100% DMSO solution in 96-well plates, and compounds were diluted 3 times with Precision, 10 concentrations. Each concentration of the compound was then further diluted to a 5-fold final concentration of the intermediate dilution solution using 1* Kinase buffer.
(§5) 3.5 μL of each of the prepared intermediate dilution compounds was separately added to the compound wells of the 384-well plate, and each concentration was tested for duplicate wells; 5 μL of 5% DMSO was added to the negative control wells and the positive control wells, respectively.
(§6) 4. 2.5-fold final concentration of the kinase solution was prepared using 1*Kinase buffer.
(§7) 5. Add 10 μL of 2.5-fold final concentration of kinase solution to the compound well and positive control well; add 10 μL of 1*Kinase buffer to the negative control well.
(§8) 6. Centrifuge at 1000 rpm for 30 seconds, shake the reaction plate and incubate for 10 minutes at room temperature.
(§9) 7. A mixed solution of 2.5 times the final concentration of ATP and Kinase substrate (5-FAM-EEPLYWSFPAKKK-CONH2) was prepared using 1*Kinase buffer.
(§10) 8. 10 μL of a 2.5-fold final concentration of a mixed solution of ATP and a substrate was added to initiate the reaction.
(§11) 9. Centrifuge the 384-well plate at 1000 rpm for 30 seconds, mix by shaking, and incubate at room temperature for the corresponding time.
(§12) 10. Add 30 μL of the stop solution to stop the kinase reaction, centrifuge at 1000 rpm for 30 seconds, and mix by shaking.
(§13) 11. Read the conversion rate with Caliper EZ Reader.
(§14) Convert conversion values to inhibition values:
(§15) Percent inhibition 32 (max-conversion)/(max-min)*100.
(§16) “max” stands for the mean value of the positive control well ratio; “min” stands for the mean value of the negative control well.
(§17) Fit the data in log(inhibitor) vs. response Variable slope of GraphPad Prism 5 to obtain IC50 values.
(§18) Equation used is: Y=Bottom+(Top-Bottom)/(1+(IC50/X)^HillSlope)

The target in series [2] is EGFR WT (Homo sapiens, UniProt P00533). Briefly: Kinase assay (mobility shift), EGFR wildtype. The class given is biochemical. The note with it: top concentration 300 nM. How it is done: as §1, §2, §3, §4, §5, §6, §7, §8, §9, §10, §11, §12, §13, §14, §15, §16, §17, §18
EGFR WT, sequence (P00533 25-1210): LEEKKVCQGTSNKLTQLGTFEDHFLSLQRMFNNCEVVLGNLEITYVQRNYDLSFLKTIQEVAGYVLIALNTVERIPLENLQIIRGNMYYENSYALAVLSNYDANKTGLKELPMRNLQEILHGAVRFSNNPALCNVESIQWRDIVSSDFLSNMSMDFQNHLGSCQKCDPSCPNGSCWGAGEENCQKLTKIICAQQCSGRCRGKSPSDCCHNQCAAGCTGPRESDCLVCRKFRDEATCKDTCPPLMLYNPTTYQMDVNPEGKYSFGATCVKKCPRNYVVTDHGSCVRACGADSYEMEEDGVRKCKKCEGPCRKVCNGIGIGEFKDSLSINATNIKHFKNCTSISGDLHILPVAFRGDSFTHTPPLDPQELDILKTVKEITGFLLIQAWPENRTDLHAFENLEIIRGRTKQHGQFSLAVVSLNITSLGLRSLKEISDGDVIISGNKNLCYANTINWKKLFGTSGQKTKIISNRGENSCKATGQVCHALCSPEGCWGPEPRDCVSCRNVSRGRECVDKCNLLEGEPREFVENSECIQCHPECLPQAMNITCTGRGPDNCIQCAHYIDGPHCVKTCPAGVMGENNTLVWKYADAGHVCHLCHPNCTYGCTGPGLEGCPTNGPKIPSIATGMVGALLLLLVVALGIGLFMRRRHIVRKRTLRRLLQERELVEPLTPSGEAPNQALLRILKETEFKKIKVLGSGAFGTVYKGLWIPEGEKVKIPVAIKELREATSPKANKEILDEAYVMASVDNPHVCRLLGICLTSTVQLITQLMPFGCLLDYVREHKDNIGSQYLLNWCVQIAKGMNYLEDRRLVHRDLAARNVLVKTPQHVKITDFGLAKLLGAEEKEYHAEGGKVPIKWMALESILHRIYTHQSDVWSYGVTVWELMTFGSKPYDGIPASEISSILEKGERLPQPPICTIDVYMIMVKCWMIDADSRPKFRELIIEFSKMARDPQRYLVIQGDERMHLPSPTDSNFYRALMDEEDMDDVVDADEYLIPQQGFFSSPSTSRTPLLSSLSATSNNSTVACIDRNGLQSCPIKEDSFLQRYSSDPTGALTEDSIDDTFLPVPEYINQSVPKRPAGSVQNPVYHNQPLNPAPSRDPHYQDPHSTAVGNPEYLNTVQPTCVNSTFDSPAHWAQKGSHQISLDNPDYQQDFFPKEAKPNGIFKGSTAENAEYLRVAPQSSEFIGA
In series [3] the target is Ba/F3-Del19/T790M/C797S (Homo sapiens, UniProt P00533, T790M/C797S, cells depend on it, form not given). Description: Ba/F3-Del19/T790M/C797S cells proliferation assay (CellTiter Glo). The class given is cell-based. The note with it: cell proliferation, 72 h, read-out: Ba/F3-Del19/T790M/C797S IC50. As to the method: (§19) a) The medium was preheated in a 37°0 C. water bath in advance.
Ba/F3-Del19/T790M/C797S, sequence (P00533 with tags, fused parts or gaps DEL746-750/T790M/C797S, form open): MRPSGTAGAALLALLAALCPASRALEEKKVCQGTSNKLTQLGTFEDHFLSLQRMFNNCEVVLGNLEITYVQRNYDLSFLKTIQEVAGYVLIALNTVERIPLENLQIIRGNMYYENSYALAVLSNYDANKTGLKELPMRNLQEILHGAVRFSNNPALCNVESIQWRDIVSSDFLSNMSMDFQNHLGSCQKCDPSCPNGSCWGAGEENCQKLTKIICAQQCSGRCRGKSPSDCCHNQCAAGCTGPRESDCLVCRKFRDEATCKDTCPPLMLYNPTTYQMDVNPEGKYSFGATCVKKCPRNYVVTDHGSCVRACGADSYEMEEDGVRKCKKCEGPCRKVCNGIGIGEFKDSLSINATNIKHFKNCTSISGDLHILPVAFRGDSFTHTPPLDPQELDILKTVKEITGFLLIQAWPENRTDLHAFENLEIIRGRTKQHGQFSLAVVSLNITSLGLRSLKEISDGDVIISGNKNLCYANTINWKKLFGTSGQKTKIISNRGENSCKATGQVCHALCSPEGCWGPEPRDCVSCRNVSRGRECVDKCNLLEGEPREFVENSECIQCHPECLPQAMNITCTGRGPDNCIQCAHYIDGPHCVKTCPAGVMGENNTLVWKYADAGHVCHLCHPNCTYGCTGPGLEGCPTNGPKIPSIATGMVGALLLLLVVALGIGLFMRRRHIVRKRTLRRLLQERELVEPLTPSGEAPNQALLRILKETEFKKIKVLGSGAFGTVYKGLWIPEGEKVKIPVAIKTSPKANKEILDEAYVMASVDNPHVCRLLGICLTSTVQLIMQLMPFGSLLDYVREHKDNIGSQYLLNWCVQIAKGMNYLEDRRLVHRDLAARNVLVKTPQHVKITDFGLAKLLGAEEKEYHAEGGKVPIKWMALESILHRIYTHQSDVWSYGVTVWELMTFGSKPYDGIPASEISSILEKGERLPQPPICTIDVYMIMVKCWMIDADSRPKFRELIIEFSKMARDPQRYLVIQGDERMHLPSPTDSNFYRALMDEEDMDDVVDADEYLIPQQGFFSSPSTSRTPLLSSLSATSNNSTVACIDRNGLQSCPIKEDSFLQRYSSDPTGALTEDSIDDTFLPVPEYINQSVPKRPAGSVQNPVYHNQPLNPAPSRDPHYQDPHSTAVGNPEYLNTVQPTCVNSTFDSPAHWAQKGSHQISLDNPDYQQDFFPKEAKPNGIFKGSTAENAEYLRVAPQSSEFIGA
(§20) b) Remove the cryogenic vials from the liquid nitrogen tank, quickly put it into a 37° C. water bath, and completely melt it in 1 min.
(§21) c) Transfer the cell suspension to a 15 mL centrifuge tube containing 8 mL medium, centrifuge 1000 rpm, 5 min.
(§22) d) Discard the supernatant, resuspend the cells in 1 mL medium, and transfer to a 75 cm^2 flask containing 15 mL medium, culture the cells in an incubator at 37° C., 5% CO2.
(§23) a) The medium was preheated in a 37° C. water bath in advance.
(§24) b) Collect cell to a 15 mL centrifuged tube, centrifuge at 1000 rpm for 5 min. Discard the supernatant, count, and make the cell density at 1×10^4 cells/mL, then place it in a 37° C., 5% CO2 incubator.
(§25) a) The test compound (20 mM stock solution) was diluted to 200uM with 100% DMSO as starting concentration then 3-fold serial diluted with “9+0” concentrations. in a 96-well dilution plate (Cat # P-05525, Labcyte);
(§26) b) The above compound solution was diluted 1:20 times with culture medium to prepare a 10 fold working solution;
(§27) a) Take cells in log phase growth, centrifuge at 1000 rpm for 5 min, then resuspend the cells with culture medium, then count cells;
(§28) b) Cells were seeded to 96-well cell culture plate with density at 2000 cells/well;
(§29) a) Compounds prepared at step 2 were added to cell plate with 15 μL per well, the final concentrations were 1000,333, 111.1, 37,12.3, 4.1, 1.4, 0.5, 0.2 and 0 nM, and the final concentration of DMSO was 0.5%. The blank control well was a culture medium (0.5% DMSO);
(§30) b) The cells were incubated for an additional 72 h in the incubator.
(§31) a) Remove the 96-well cell culture plate and add 50 μl of CTG reagent (CellTiter Glo kit, promega, Cat # G7573).
(§32) b) Plate was shaked for 2 min and then let it cool for 10 min at room temperature.
(§33) c) The Luminescence signal value was read using a PerkinElmer reader. Experimental data analysis
(§34) Data were analyzed using GraphPad Prism 6.0 software to obtain a fitted curve of compound activity.
(§35) Fit the Compound IC50 from non-linear regression equation:
(§36) Y=Bottom+(Top-Bottom)/(1+10((LogIC50-X)×Hill Slope));
(§37) X: The log of the concentration of the compound; Y: Luminescence value.
(§38) The cells proliferation assay results are expressed with IC50, shown as Table 2.

Series [4] concerns the target Ba/F3-L858R/T790M/C797S (Homo sapiens, UniProt P00533, T790M/C797S/L858R, cells depend on it). Description: Ba/F3-L858R/T790M/C797S cells proliferation assay (CellTiter Glo). The class given is cell-based. The note with it: cell proliferation, 72 h, read-out: Ba/F3-L858R/T790M/C797S IC50. How it is done: as §19, §20, §21, §22, §23, §24, §25, §26, §27, §28, §29, §30, §31, §32, §33, §34, §35, §36, §37, §38
Background: In ATP-based viability assays light output follows the ATP content of the culture.

In series [5] the test system is A431 (WT). Description: A431 cells proliferation assay (CellTiter Glo). The class given is cell-based. The note with it: Homo sapiens, A-431; cell proliferation, 72 h. How it is done:
Test 4 A431 Cells Proliferation Assay
DMEM and 10% FBS and 1% PS.
as §23, §20, §21, §22, §24
a) The test compound (20 mM stock solution) was diluted to 2 mM with 100% DMSO as starting concentration then 3-fold serial diluted with “9+0” concentrations. in a 96-well dilution plate (Cat # P-05525, Labcyte);
b) The above compound solution was diluted 1:40 times with culture medium to prepare a 5 fold working solution;
as §27
b) Cells were seeded to 96-well cell culture plate with density at 5000 cells/well;
a) Compounds prepared at step 2 were added to cell plate with 40 μL per well, the final concentrations were 10000, 3333,1111.1, 370.4, 123.5, 41.2, 13.7, 4.6, 1.5 and 0 nM, and the final concentration of DMSO was 0.5%. The blank control well was a culture medium (0.5% DMSO);
as §30
a) Remove the 96-well cell culture plate and add 60 μl of CTG reagent (CellTiter Glo kit, promega, Cat # G7573).
as §32
c) The Luminescence signal value was read using a PerkinElmer reader.
Experimental Data Analysis
as §34, §35
Y=Bottom+(Top-Bottom)/(1+10((LogIC50-X)×HillSlope));
as §37
The cells proliferation assay results are expressed with IC50, shown as Table 3.

Series [6] in a line: Pharmacokinetic assay, oral administration. Type of series: in vivo. The note with it: rat, male SD rats, p.o. 5 mg/kg, plasma, formulation differs per row. How it is done: Test 5 Pharmacokinetic Assay
Male SD rats, oral administration (intragastric administration), 3 in each group. Animals administered by gavage were fasted overnight before the experiment, and the fasting time was from at least 12 hours before administration to 4 hours after administration. The blood was collected using the orbital vein. Time of blood collection by oral administration: 15 min, 30 min, 1 h, 2 h, 4 h, 7 h, 24 h. The blood collection volume was 300 uL, and after anticoagulation with 2.0% EDTA, the blood was centrifuged at 4000 rpm for 5 min, and the blood plasma was taken for about 100 uL, and placed in −20° C. for examination. The plasma sample was analyzed using liquid chromatography tandem mass spectrometry (LC-MS/MS). Plasma concentration-time data for individual animals were analyzed using WinNonlin (V4.1, Pharsight) software with a non-compartmental model and the pharmacokinetic parameters of the test compounds were calculated.

Ba/F3-L858R/T790M/C797S, sequence (P00533 whole entry T790M/C797S/L858R): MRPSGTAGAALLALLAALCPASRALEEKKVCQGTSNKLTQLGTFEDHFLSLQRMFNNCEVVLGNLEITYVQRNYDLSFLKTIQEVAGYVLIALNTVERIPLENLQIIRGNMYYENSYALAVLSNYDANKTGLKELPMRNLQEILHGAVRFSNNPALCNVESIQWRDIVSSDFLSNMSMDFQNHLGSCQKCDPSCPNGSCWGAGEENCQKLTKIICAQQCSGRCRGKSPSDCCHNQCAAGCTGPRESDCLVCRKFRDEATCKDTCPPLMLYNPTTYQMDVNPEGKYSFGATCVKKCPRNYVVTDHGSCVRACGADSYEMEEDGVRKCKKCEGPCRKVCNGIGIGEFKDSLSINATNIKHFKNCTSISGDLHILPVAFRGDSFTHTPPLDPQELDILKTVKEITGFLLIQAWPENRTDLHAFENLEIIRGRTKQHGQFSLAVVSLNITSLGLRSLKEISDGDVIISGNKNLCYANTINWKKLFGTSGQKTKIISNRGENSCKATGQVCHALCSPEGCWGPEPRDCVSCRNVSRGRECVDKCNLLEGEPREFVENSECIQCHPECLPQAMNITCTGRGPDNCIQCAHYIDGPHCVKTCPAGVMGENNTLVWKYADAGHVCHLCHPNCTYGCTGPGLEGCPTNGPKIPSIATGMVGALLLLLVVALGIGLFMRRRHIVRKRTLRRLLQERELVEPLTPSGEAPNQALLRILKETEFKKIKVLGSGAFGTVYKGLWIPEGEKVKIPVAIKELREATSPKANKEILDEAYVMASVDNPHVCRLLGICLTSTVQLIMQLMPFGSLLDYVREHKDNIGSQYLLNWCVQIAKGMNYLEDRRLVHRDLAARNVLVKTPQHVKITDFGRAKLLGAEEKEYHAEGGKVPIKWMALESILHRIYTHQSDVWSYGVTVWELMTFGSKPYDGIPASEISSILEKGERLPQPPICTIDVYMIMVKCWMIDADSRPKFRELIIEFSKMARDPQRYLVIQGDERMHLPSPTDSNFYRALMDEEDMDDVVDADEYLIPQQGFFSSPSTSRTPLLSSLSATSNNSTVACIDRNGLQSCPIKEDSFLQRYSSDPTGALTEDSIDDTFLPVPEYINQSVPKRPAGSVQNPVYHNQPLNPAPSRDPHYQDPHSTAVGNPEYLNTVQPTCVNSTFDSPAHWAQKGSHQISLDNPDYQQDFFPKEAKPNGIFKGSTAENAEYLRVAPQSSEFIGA

On to `CP(C)(=O)c1ccccc1Nc1nc(Nc2ccc(N3CCC4(CC3)CC(NC3CCCC3)C4)c(Cl)c2)ncc1Cl` [Example 31, (2-((5-chloro-2-((3-chloro-4-(2-(cyclopentylamino)-7-azaspiro[3.5]nonan-7-yl)phenyl)amino)pyrimidin-4-yl)amino)phenyl)dimethylphosphine oxide], for which the IC50 in series [1] (numeric values) was 1.6 nM; in series [2], 33 nM. The GI50 in series [3] (class symbols) and in series [4] (class symbols) was 10 to 50 nM throughout.

As for `Cc1cc(Nc2ncc(F)c(Nc3ccccc3P(C)(C)=O)n2)ccc1N1CC2(CC(N)C2)C1` [Example 24, (2-((2-((4-(6-amino-2-azaspiro[3.3]heptan-2-yl)-3-methylphenyl)amino)-5-fluoropyrimidin-4-yl)amino)phenyl)dimethylphosphine oxide], the IC50 in series [1] (numeric values) came to 18 nM; in series [2] it was 101 nM. The GI50 in series [3] (class symbols) and in series [4] (class symbols) was over 50 nM in each case.

For `Cc1cc(Nc2ncc(Cl)c(Nc3ccccc3P(C)(C)=O)n2)ccc1N1CCC2(CC1)CC(N(C)C)C2` [Example 15, (2-((5-chloro-2-((4-(2-(dimethylamino)-7-azaspiro[3.5]nonan-7-yl)-3-methylphenyl)amino)pyrimidin-4-yl)amino)phenyl)dimethylphosphine oxide], the IC50 in series [1] (numeric values) worked out at 0.7 nM. Moreover, the GI50 in series [3] (numeric values) turned out to be 15.5 nM. For the same molecule, in series [4] (numeric values), the GI50 was 17 nM. Besides, the IC50 in series [5] is 27.6 nM. Besides, in series [6], the AUC(0-t) is 6940 ng·h/mL, the Cmax came to 575 ng/mL, the Tmax was determined as 6 h and the half-life was 4.38 h.

For `Cc1cc(Nc2ncc(Cl)c(Nc3ccccc3P(C)(C)=O)n2)ccc1N1CC2(CC(N)C2)C1` [Example 25, (2-((2-((4-(6-amino-2-azaspiro[3.3]heptan-2-yl)-3-methylphenyl)amino)-5-chloropyrimidin-4-yl)amino)phenyl)dimethylphosphine oxide], the IC50 was 1.5 nM in series [1] (numeric values) and 28 nM in series [2]. Besides, the GI50 in series [3] (numeric values) stood at 18 nM; in series [4] (numeric values), 24.2 nM.

In the case of `Cc1cc(Nc2ncc(C)c(Nc3ccccc3P(C)(C)=O)n2)ccc1N1CC2(CC(N)C2)C1` [Example 22, (2-((2-((4-(6-amino-2-azaspiro[3.3]heptan-2-yl)-3-methylphenyl)amino)-5-methylpyrimidin-4-yl)amino)phenyl)dimethylphosphine oxide], the IC50 in series [1] (class symbols) was 2 to 10 nM; in series [2], 57 nM. Besides, the GI50 in series [3] (class symbols) and in series [4] (class symbols) was over 50 nM throughout.

For `COc1cnc(Nc2ccc(N3CCC4(CC3)CC(N)C4)c(C)c2)nc1Nc1ccccc1P(C)(C)=O` [Example 27, (2-((2-((4-(2-amino-7-azaspiro[3.5]nonan-7-yl)-3-methylphenyl)amino)-5-methoxypyrimidin-4-yl)amino)phenyl)dimethylphosphine oxide], the IC50 in series [1] (numeric values) was determined as 4.4 nM; in series [2], 127 nM. The GI50 in series [3] (class symbols) and in series [4] (class symbols) was over 50 nM throughout.

On to `CN(C)C1CCC2(CC1)CN(c1ccc(Nc3ncc(Cl)c(Nc4ccccc4P(C)(C)=O)n3)cc1Cl)C2` [Example 10, (2-((5-chloro-2-((3-chloro-4-(7-(dimethylamino)-2-azaspiro[3.5]nonan-2-yl)phenyl)amino)pyrimidin-4-yl)amino)phenyl)dimethylphosphine oxide], for which the IC50 in series [1] (numeric values) came out at 0.7 nM. For the same molecule, in series [3] (numeric values), the GI50 was found to be 10.2 nM. Further, the GI50 in series [4] (numeric values) turned out to be 24.7 nM. Besides, the IC50 in series [5] was 41.6 nM. In series [6], the AUC(0-t) was 443 ng·h/mL, the highest level (Cmax) was 35.1 ng/mL, the Tmax was determined as 4 h and the half-life was 9.06 h.

On to `CP(C)(=O)c1ccccc1Nc1nc(Nc2ccc(N3CCC4(CC3)CC(NCCO)C4)c(Cl)c2)ncc1Cl` [Example 32, (2-((5-chloro-2-((3-chloro-4-(2-((2-hydroxyethyl)amino)-7-azaspiro[3.5]nonan-7-yl)phenyl)amino)pyrimidin-4-yl)amino)phenyl)dimethylphosphine oxide], for which the IC50 in series [1] (numeric values) is 3.2 nM; in series [2], 65 nM. The GI50 in series [3] (class symbols) and in series [4] (class symbols) was over 50 nM in each case.

As to `CP(C)(=O)c1ccccc1Nc1nc(Nc2ccc(N3CC4(CC(N)C4)C3)c(Cl)c2)ncc1Cl` [Example 26, (2-((2-((4-(6-amino-2-azaspiro[3.3]heptan-2-yl)-3-chlorophenyl)amino)-5-chloropyrimidin-4-yl)amino)phenyl)dimethylphosphine oxide], the IC50 in series [1] (numeric values) came to 1.7 nM; in series [2], 37 nM. Further, the GI50 in series [3] (class symbols) and in series [4] (class symbols) was 10 to 50 nM each time.

The term IC50 denotes the concentration needed to halve the response being measured. Usually AUC(0-t) stands for exposure summed from dosing to a finite time, without extrapolation to infinity. A high value points to high exposure. By Cmax is commonly meant the peak of the concentration-time curve. Usually Tmax stands for the time from dosing to the highest level. A word on the half-life: it is how long it takes for the measured level to halve. Lower therefore signals rapid decline.
